Measurements from EP0880540B1, “17-BETA-CYCLOPROPYL(AMINO/OXY) 4-AZA STEROIDS AS ACTIVE INHIBITORS OF TESTOSTERONE 5-ALPHA-REDUCTASE AND C17-20-LYASE” (Aventis Pharmaceuticals Inc., priority 1996, dated 1997).

What was measured:
[1] = biological target: T1, cynomolgus monkey prostatic 5α-reductase (Macaca fascicularis, UniProt Q28892); assay: In vitro 5α-reductase assay, prostate microsomes; assay type: biochemical; conditions: mean of duplicates
T1 construct: microsomal preparations of the 5α-reductase enzyme from laboratory animal prostate tissue; from tissue; host or cells: cynomolgus monkey prostate, microsomes
T1 sequence (Q28892 1-254): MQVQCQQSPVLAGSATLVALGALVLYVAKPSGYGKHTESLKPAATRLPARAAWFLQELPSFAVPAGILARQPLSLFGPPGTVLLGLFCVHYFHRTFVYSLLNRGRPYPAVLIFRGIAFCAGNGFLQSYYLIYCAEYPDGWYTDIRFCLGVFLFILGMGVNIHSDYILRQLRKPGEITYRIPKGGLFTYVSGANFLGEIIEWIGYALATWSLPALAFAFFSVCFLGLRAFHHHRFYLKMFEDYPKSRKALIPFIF
Method: In vitro 5α-reductase assays: The activity of the present compounds as inhibitors of steroid 5α-reductase was determined using microsomal preparations of the 5α-reductase enzyme from laboratory animal prostate tissue. Specifically, microsomes were isolated from cynomolgus monkey prostate tissue. Protein concentration of the microsomal preparations was determined prior to use of the samples. Individual assays of cynomolgus monkey prostatic 5α-reductase activity contained 0.1 M potassium phosphate-sodium citrate buffer, pH 5.6 1.0% (w/v) bovine serum albumin, […] sodium EDTA, 4 µg of microsomal protein, 1.0 mM NADPH, 5.0 mM glucose-6-phosphate, 1 IU/mL glucose-6-phosphate dehydrogenase, [1,2-^3H]-testosterone (0.15 µCi) plus unlabeled testosterone to yield 0.015 µM (Km = 0.015 µM to 0.091 µM in multiple determinations), and test compound which was dissolved in DMSO then diluted in 0.1 M potassium phosphate-sodium citrate buffer, pH 5.6, to yield a final assay concentration of 0.1% (v/v) DMSO. The same buffer and DMSO without test compound were used in control assays. Background radioactivity was determined from assays containing all components except enzyme. Assays were performed in duplicate. Microsomes, 0.1 M potassium phosphate-sodium citrate buffer, pH 5.6, and test compound were preincubated at 37°C. Aliquots of 180 µL were removed after 0 or 40 minutes of preincubation and added to […] of testosterone substrate suspended in 0.1 M potassium phosphate-sodium citrate buffer, pH 5.6, containing 10% (v/v) DMSO. Remaining enzyme activity was assayed for 10 minutes at 37°C in a Dubnoff shaker incubator.
The reactions were terminated by the addition of 5 mL CHCl3:methanol (2:1) and 0.9 mL water. Carrier steroids were added in the form of 2.5 µg each of testosterone, dihydrotestosterone, and 3,17-androstanediol. Steroid metabolites were then extracted according to the procedure of Moore and Wilson (Methods in Enzymol., O'Malley, B.W. and Hardman, J.G. eds., 36, 1975, pp. 466-474), the organic phase containing the steroids was evaporated using nitrogen gas, the residues were dissolved in 3% (v/v) isopropanol in hexane. The steroids were then separated by normal phase HPLC on a LiCrosorb® DIOL derivatized silica gel column (10 µm; 4 x 250 mm) with a 3% to 7.5% isopropanol in hexane gradient, followed by isocratic conditions of […] isopropanol in hexane. Radioactivity in the steroid peaks was measured using a Packard Radiomatic model HS Flo-One detector. When the compound were tested using the above procedures with cynomolgus monkey 5α-reductase, the following results were obtained: Table 2: […]

Dunning H Tumor = assay: Dunning H tumor growth in rats; assay type: in vivo, male Copenhagen rats; conditions: MDL 105831 15 mg/kg/day PO, MDL 15910 50 mg/kg/day PO
From the text: As described in J.T. Isaacs & D.S. Coffey, Cancer Res. 41:5070-5075 (1981); W.J. Ellis & J.T. Issacs, Cancer Res. 45:6041-6050 (1985); T.W. Bedding & A.V. Schally, The Prostate 6:219-232 (1985) and P.E. Juniewicz et al. The Prostate 18:105-115 (1991), male Copenhagen rats were obtained from HARLAN-SPRAGUE-DAWLEY Inc. (Indianapolis, IN), and were individually housed in suspended wire cages and provided laboratory rodent chow (Purina 5001 pellets, Purina Mills, St. Louis, MO) and deionized water ad libum. The rats were anesthetized using sodium pentobarbital and the hair was clipped from the back dorsal area. Tumors from donor Copenhagen rats were cut into fragments of 10 mm^3 and implanted subcutaneously (one site per rat) into the prepared dorsal area.
Animals were selected (105 days post implantation) for the treatment phase based on tumor size. Ten animals were anesthetized with sodium pentobarbital and bilaterally castrated. The remaining animals were assigned to treatment groups (ten per group) based on mean group tumor size. Animals were kept separate throughout the study. The tested compounds were prepared in solution or suspension in a lecithin vehicle (L-α-phosphatidylcholine type XV-E) containing methylparaben and propylparaben. All treatments were performed by oral gavage (per os) at 2 cc/kg each day of study. Tumor size and rat body weights were recorded every seven days over a period of 35 days. Twenty-four hours after the last treatment animals were euthenized by CO2 and the tumors, prostate, seminal vesicles and testes were removed and weighed. In Table 4, average tumor growth is determined from the corrected group means over a 35 day period after treatment was started. […] The animals eliminated from the calculation of the corrected means were in Figure 6, animals 8, 9, 10; in Figure 7, animals 18, 19 and 20; in Figure 8, animals 27, 28, 29 and 30; and in Figure 9, animals 37, 39 and 40. The castrated controls in Figure 10 present a different problem. Here it is believed that the different tumor volumes observed throughout the group is attributable to the different sizes at the beginning of the study. Since the mean variance here is clearly attributable to factors other than the effect of the castration itself, animals 47, 48, 49 and 50 were deleted from the corrected mean. Of these, animal 47 died during the treatment period.
Table 4 indicates the average daily growth rate, measured from the corrected mean tumor size on day 35 and day 0, comparing MDL 105831 and flutamide (MDL 15910), a known androgen receptor antagonist. […]

| SMILES | inhibition at 0.1 µM ([1]; preincubation 0 min) [%] | inhibition at 0.1 µM ([1]; preincubation 40 min) [%] | inhibition at 1 µM ([1]; preincubation 0 min) [%] | inhibition at 1 µM ([1]; preincubation 40 min) [%] | inhibition at 10 µM ([1]; preincubation 0 min) [%] | inhibition at 10 µM ([1]; preincubation 40 min) [%] | Tumor Growth in Dunning H Rat, Day 0 (Dunning H Tumor; Day 0 (baseline), corrected group mean) [mm^3] | Tumor Growth in Dunning H Rat, Day 7 (Dunning H Tumor; Day 7, corrected group mean) [mm^3] | Tumor Growth in Dunning H Rat, Day 16 (Dunning H Tumor; Day 16, corrected group mean) [mm^3] | Tumor Growth in Dunning H Rat, Day 21 (Dunning H Tumor; Day 21, corrected group mean) [mm^3] | Tumor Growth in Dunning H Rat, Day 29 (Dunning H Tumor; Day 29, corrected group mean) [mm^3] | Tumor Growth in Dunning H Rat, Day 35 (Dunning H Tumor; Day 35, corrected group mean) [mm^3] | Δv/Δt (day 35-day 0) (Dunning H Tumor; average daily growth rate from corrected mean tumor size) [mm^3/day] |
| --- | --- | --- | --- | --- | --- | --- | --- | --- | --- | --- | --- | --- | --- |
| CC12CCC3C(CC[C@H]4NC(=O)CCC34C)C1CC[C@@H]2OC1CC1 (stereo partly drawn) [MDL 103,432, 17β-Cyclopropyloxy-4-aza-5α-androstan-3-one] | 78.7 | 80 | 98.7 | 99.3 | 99.4 | 99.4 | – | – | – | – | – | – | – |
| C[C@]12CC[C@H]3[C@@H](CC=C4NC(=O)CC[C@@]43C)[C@@H]1CC[C@@H]2NC1CC1 [MDL 105,831, 17β-Cyclopropylamino-4-aza-androst-5-en-3-one] | – | – | – | – | – | – | 328.40 | 389.90 | 497.20 | 759.40 | 1135.80 | 1041.60 | 20.38 |
